Test results as given in patent US12624003B2, “Carboxylic acid containing indanyl compounds for the treatment of neurodegenerative diseases” (Celgene Corporation, priority 2020, dated 2026).

target: T1, S1P5 (Homo sapiens, UniProt Q9H228); experiment: [35S]-GTPγS functional binding assay on CHO-S1P5 membranes; assay type: biochemical; conditions: membranes of CHO cells expressing recombinant S1P5 receptors; measure of S1P5 agonism
T1 construct: expressed in transfected cells; host or cells: CHO cells (membranes)
T1 sequence (Q9H228 whole entry, species assumed): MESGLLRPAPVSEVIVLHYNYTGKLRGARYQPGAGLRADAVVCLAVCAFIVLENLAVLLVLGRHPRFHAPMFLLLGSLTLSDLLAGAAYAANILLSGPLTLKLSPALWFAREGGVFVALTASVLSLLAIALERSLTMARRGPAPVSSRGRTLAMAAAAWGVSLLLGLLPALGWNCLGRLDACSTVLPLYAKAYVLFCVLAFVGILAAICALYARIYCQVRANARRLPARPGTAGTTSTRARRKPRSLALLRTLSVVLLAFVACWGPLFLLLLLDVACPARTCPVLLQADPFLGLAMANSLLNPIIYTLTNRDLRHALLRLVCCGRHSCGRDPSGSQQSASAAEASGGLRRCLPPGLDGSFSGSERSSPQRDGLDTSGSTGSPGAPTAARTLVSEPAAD
Method: CHO cells expressing recombinant S1P5 receptors were cultured in 500 cm^2 culture trays and, once confluent, rinsed and detached with cell-lifting buffer (10 mM HEPES, 154 mM NaCl, 6.85 mM EDTA, pH 7.4). Cells were then pelleted by centrifugation, resuspended, and homogenized in membrane preparation buffer (10 mM HEPES and 10 mM EDTA, pH 7.4) using a Polytron PT 1200E homogenizer (Kinematica, Luzern, Switzerland). Cellular proteins were pelleted by centrifugation at 48,000×g at 4° C. for 30 minutes. The resulting supernatant was discarded, and the pellet was re-suspended again in membrane preparation buffer, homogenized for a second time, and then centrifuged again as described above. The final cellular protein pellet was suspended in ice cold resuspension buffer (10 mM HEPES and 0.1 mM EDTA, pH 7.4), divided into aliquots, and stored at −80° C. until use.
Functional binding assays for [^35S]-GTPγS were performed in 96-well non-binding surface plates with a final volume of 200 μL. The test compounds were serially diluted in DMSO and added to assay plates using a Tecan D300E digital printer with a total volume of 0.4 μL. The control sphingosine-1-phosphate (S1P) was prepared separately by preparing a 400 μM stock solution from a 100 nmol pellet of SIP in 10 mM Na2CO3 with 2% s-cyclodextrin. The serial dilution of S1P was done using complete assay buffer (20 mM HEPES, 10 mM MgCl2, 100 mM NaCl, 1 mM EDTA, 0.1% fatty acid free bovine serum albumin (BSA), and 30 μg/mL saponin, pH 7.4) and transferred to wells already containing 0.4 μL DMSO. All the wells were then loaded to a total volume of 40 μL of complete assay buffer, except the non-specific binding (NSB) wells. For NSB wells, 40 μL/well of 50 μM GTPγS (Sigma Aldrich, cat #G8634, St. Louis, MO) was added to wells containing 0.4 μL of DMSO. The assay was started by the addition of 120 μL/well of CHO-S1P receptor membrane solution containing 40 μg/mL of membrane protein, 16.67 μM guanosine diphosphate (GDP; Sigma Aldrich, cat #G7127, St. Louis, MO), and 2.5 mg/mL of WGA PVT SPA beads in complete buffer. Assay plates were then sealed and incubated at room temperature with gentle agitation for 30 minutes. Next, 40 μL/well of 1 nM of [^35S]-GTPγS (PerkinElmer, cat #NEG030X250UC, Waltham, MA) in basic assay buffer (20 mM HEPES, 10 mM MgCl2, 100 mM NaCl, and 1 mM EDTA, pH 7.4) was added to the assay plates to yield a final concentration of […] and the plates were further incubated for 40 minutes at room temperature with gentle agitation. The assay was terminated by centrifugation of the plates at 1000 rpm for 3 minutes using an Eppendorf 5810R centrifuge (Eppendorf, Hamburg, Germany) and G protein bound radioactivity was quantitated using a MicroBeta2 microplate scintillation counter (PerkinElmer, Waltham, MA). As G protein bound radioactivity directly correlates to receptor activation and coupling to the G protein, this assay is a measure of S1P5 agonism.

| EC50 | SMILES |
| --- | --- |
| ≤ 10 nM | O=C(O)C1(F)CCN(C2CCc3cc(C#Cc4c(Cl)cccc4Cl)ccc32)CC1 (single isomer, unassigned) [Compound 3b, 1-(5-((2,6-dichlorophenyl)ethynyl)-2,3-dihydro-1H-inden-1-yl)-4-fluoropiperidine-4-carboxylic acid] |
| ≤ 10 nM | O=C(O)C1CCN(C2CCc3cc(C#Cc4c(Cl)cccc4Cl)ccc32)CC1 (stereo not shown) [Compound 1, 1-(5-((2,6-dichlorophenyl)ethynyl)-2,3-dihydro-1H-inden-1-yl)piperidine-4-carboxylic acid] |
| 10 to 100 nM | O=C(O)C1CC2(C1)CN(C1CCc3cc(CCc4c(Cl)cccc4Cl)ccc31)C2 (stereo not shown) [Compound 29, 2-(5-(2,6-dichlorophenethyl)-2,3-dihydro-1H-inden-1-yl)-2-azaspiro[3.3]heptane-6-carboxylic acid] |
| 10 to 100 nM | O=C(O)[C@H]1CCN(C2CCc3cc(-c4ccc(C5CC5)c(F)c4)ccc32)C1 (single isomer, unassigned) [Compound 37b] |
| 100 to 1000 nM | O=C(O)C1CCN(C2CCc3cc(CCc4ccccc4Cl)ccc32)CC1 (single isomer, unassigned) [Compound 25b, 1-(5-(2-chlorophenethyl)-2,3-dihydro-1H-inden-1-yl)piperidine-4-carboxylic acid] |
| ≤ 10 nM | O=C(O)C1CN(C2CCc3cc(C#Cc4cc(F)ccc4F)ccc32)C1 (single isomer, unassigned) [Compound 20, 1-(5-((2,5-difluorophenyl)ethynyl)-2,3-dihydro-1H-inden-1-yl)azetidine-3-carboxylic acid] |
| ≤ 10 nM | O=C(O)C1(F)CCN(C2CCc3cc(C#Cc4c(Cl)cccc4Cl)ccc32)CC1 (single isomer, unassigned) [Compound 3a, 1-(5-((2,6-dichlorophenyl)ethynyl)-2,3-dihydro-1H-inden-1-yl)-4-fluoropiperidine-4-carboxylic acid] |
| 100 to 1000 nM | O=C(O)C1CCN(C2CCc3cc(-c4ccc5c(c4)CCO5)ccc32)CC1 (single isomer, unassigned) [Compound 43, 1-(5-(2,3-dihydrobenzofuran-5-yl)-2,3-dihydro-1H-inden-1-yl)piperidine-4-carboxylic acid] |
| 100 to 1000 nM | O=C(O)[C@@H]1CCCCN1C1CCc2cc(C#Cc3cccc(F)c3)ccc21 (single isomer, unassigned) [Compound 8a] |
| 10 to 100 nM | O=C(O)[C@@H]1[C@@H]2CN(C3CCc4cc(C#Cc5cccc(F)c5)ccc43)C[C@@H]21 (stereo partly drawn) [Compound 17, (1R,5S,6s)-3-(5-((3-fluorophenyl)ethynyl)-2,3-dihydro-1H-inden-1-yl)-3-azabicyclo[3.1.0]-hexane-6-carboxylic acid] |
| 10 to 100 nM | O=C(O)C1CCCN(C2CCc3cc(-c4ccc(C5CC5)c(Cl)c4)ccc32)C1 (stereo not shown) [Compound 38, 1-(5-(3-chloro-4-cyclopropylphenyl)-2,3-dihydro-1H-inden-1-yl)piperidine-3-carboxylic acid] |
| ≤ 10 nM | O=C(O)C1CN(C2CCc3cc(-c4ccc(C5CC5)c(Cl)c4)ccc32)C1 (single isomer, unassigned) [Compound 30b, 1-(5-(3-chloro-4-cyclopropylphenyl)-2,3-dihydro-1H-inden-1-yl)azetidine-3-carboxylic acid] |
| 100 to 1000 nM | O=C(O)C1CCN(C2CCc3cc(CCc4cccc(Cl)c4)ccc32)CC1 (single isomer, unassigned) [Compound 27b, 1-(5-(3-chlorophenethyl)-2,3-dihydro-1H-inden-1-yl)piperidine-4-carboxylic acid] |
| ≤ 10 nM | O=C(O)[C@@H]1CCN(C2CCc3cc(-c4ccc(C5CC5)c(F)c4)ccc32)C1 (single isomer, unassigned) [Compound 36b] |
| 100 to 1000 nM | O=C(O)[C@H]1[C@@H]2CN(C3CCc4cc(C#Cc5cccc(F)c5)ccc43)C[C@@H]21 (stereo partly drawn) [Compound 16, (1R,5S,6r)-3-(5-((3-fluorophenyl)ethynyl)-2,3-dihydro-1H-inden-1-yl)-3-azabicyclo[3.1.0]-hexane-6-carboxylic acid] |
| ≤ 10 nM | O=C(O)[C@@H]1CCN(C2CCc3cc(C#Cc4cccc(F)c4)ccc32)C1 (single isomer, unassigned) [Compound 14a] |

| EC50 | SMILES |
| --- | --- |
| 1000 to 10000 nM | O=C(O)[C@H]1CCCCN1C1CCc2cc(C#Cc3cccc(F)c3)ccc21 (single isomer, unassigned) [Compound 9b] |
| 100 to 1000 nM | O=C(O)C1C2CCC1CN(C1CCc3cc(C#Cc4cccc(F)c4)ccc31)C2 [Compound 10, (1R,5S,8s)-3-(5-((3-fluorophenyl)ethynyl)-2,3-dihydro-1H-inden-1-yl)-3-azabicyclo[3.2.1]-octane-8-carboxylic acid] |
| ≤ 10 nM | O=C(O)C1CCN(C2CCc3cc(C#Cc4ccccc4F)ccc32)CC1 (single isomer, unassigned) [Compound 6b, 1-(5-((2-fluorophenyl)ethynyl)-2,3-dihydro-1H-inden-1-yl)piperidine-4-carboxylic acid] |
| ≤ 10 nM | O=C(O)C1CCN(C2CCc3cc(CCc4cccc(Cl)c4)ccc32)CC1 (single isomer, unassigned) [Compound 27a, 1-(5-(3-chlorophenethyl)-2,3-dihydro-1H-inden-1-yl)piperidine-4-carboxylic acid] |
| ≤ 10 nM | O=C(O)[C@@H]1CCN(C2CCc3cc(-c4ccc(C5CC5)c(Cl)c4)ccc32)C1 (single isomer, unassigned) [Compound 34b] |
| 10 to 100 nM | O=C(O)[C@H]1CCN(C2CCc3cc(C#Cc4cccc(F)c4)ccc32)C1 (single isomer, unassigned) [Compound 13b] |
| 10 to 100 nM | O=C(O)C1CCN(C2CCc3cc(C#Cc4ccccc4F)ccc32)CC12CC2 (stereo not shown) [Compound 11, 5-(5-((2-fluorophenyl)ethynyl)-2,3-dihydro-1H-inden-1-yl)-5-azaspiro[2.5]octane-8-carboxylic acid] |
| 10 to 100 nM | O=C(Cc1ccc2c(c1)CCC2N1CCC(C(=O)O)CC1)c1c(Cl)cccc1Cl (single isomer, unassigned) [Compound 24, 1-(5-(2-(2,6-dichlorophenyl)-2-oxoethyl)-2,3-dihydro-1H-inden-1-yl)piperidine-4-carboxylic acid] |
| 100 to 1000 nM | COc1cc(OC)cc(-c2ccc3c(c2)CCC3N2CCC(C(=O)O)CC2)c1 (single isomer, unassigned) [Compound 40, 1-(5-(3,5-dimethoxyphenyl)-2,3-dihydro-1H-inden-1-yl)piperidine-4-carboxylic acid] |
| 100 to 1000 nM | O=C(O)C1CCN(C2CCc3cc(CCc4c(F)cccc4F)ccc32)CC1 (single isomer, unassigned) [Compound 28a, 1-(5-(2,6-difluorophenethyl)-2,3-dihydro-1H-inden-1-yl)piperidine-4-carboxylic acid] |
| 100 to 1000 nM | O=C(O)C1CCN(C2CCc3cc(C#Cc4cccc(F)c4)ccc32)CC1 (single isomer, unassigned) [Compound 4a, 1-(5-((3-fluorophenyl)ethynyl)-2,3-dihydro-1H-inden-1-yl)piperidine-4-carboxylic acid] |
| ≤ 10 nM | O=C(O)C1CCN(C2CCc3cc(CCc4c(Cl)cccc4Cl)ccc32)CC1 (single isomer, unassigned) [Compound 22b, 1-(5-(2,6-dichlorophenethyl)-2,3-dihydro-1H-inden-1-yl)piperidine-4-carboxylic acid] |
| 10 to 100 nM | O=C(O)C1CCN(C2CCc3cc(CCc4cccc(F)c4)ccc32)CC1 (single isomer, unassigned) [Compound 26b, 1-(5-(3-fluorophenethyl)-2,3-dihydro-1H-inden-1-yl)piperidine-4-carboxylic acid] |
| ≤ 10 nM | O=C(O)C1=CCN(C2CCc3cc(C#Cc4c(Cl)cccc4Cl)ccc32)CC1 (stereo not shown) [Compound 2, 1-(5-((2,6-dichlorophenyl)ethynyl)-2,3-dihydro-1H-inden-1-yl)-1,2,3,6-tetrahydropyridine-4-carboxylic acid] |
| 10 to 100 nM | O=C(O)C1CCN(C2CCc3cc(C#Cc4cccc(F)c4)ccc32)CC12CC2 (stereo not shown) [Compound 12, 5-(5-((3-fluorophenyl)ethynyl)-2,3-dihydro-1H-inden-1-yl)-5-azaspiro[2.5]octane-8-carboxylic acid] |
